Earlier results in US20230398047A1, “COMPOSITION COMPRISING SKIN CARE ACTIVE INGREDIENT AND TWO POLYGLYCERYL FATTY ACID ESTERS” (L'OREAL, priority 2021, published 2023).

Conditions: octan-1-ol/water; values said to be known or calculated

| logP | SMILES |
| --- | --- |
| ASCORBYL GLUCOSIDE (logP = −3.4) | O=C1O[C@H]([C@@H](O)CO)C(O)=C1O[C@H]1O[C@H](CO)[C@@H](O)[C@H](O)[C@H]1O [ASCORBYL GLUCOSIDE, ascorbyl glucoside] |
| PHENYLETHYL RESORCINOL(logP = 3.07) | CC(c1ccccc1)c1ccc(O)cc1O (centres unmarked) [PHENYLETHYL RESORCINOL, 4-(1-phenylethyl)-1,3-benzenediol] |
| 3-O-ETHYL ASCORBIC ACID (LogP = −1.3) | CCOC1=C(O)C(=O)O[C@@H]1[C@@H](O)CO [3-O-ETHYL ASCORBIC ACID, 3-O-ethyl ascorbic acid] |

| SMILES | logP |
| --- | --- |
| CC(O)C[C@H]1OC[C@@H](O)[C@H](O)[C@H]1O (stereo partly drawn) [HYDROXYPROPYL TETRAHYDROPYRANTRIOL, C-beta-D-xylopyranoside-2-hydroxpropane] | HYDROXYPROPYL TETRAHYDROPYRANTRIOL (logP = −1.5) |
| NC(=O)c1cccnc1 [NIACINAMIDE, niacinamide, reference compound] | NIACINAMIDE (LogP = −0.37) |
